Measured values taken from article PMC6628648, “Enabling microbial syringol conversion through structure-guided protein engineering” (Proceedings of the National Academy of Sciences of the …, 2019).
Like-named read-outs stand apart in the source and are kept apart here.

How the values were obtained:
[1] = target: T1, GcoA variant F169I (Amycolatopsis sp., UniProt P0DPQ7, F169I); test: NADH consumption assay (specific activity) with GcoB; format: biochemical, Amycolatopsis sp. ATCC 39116; conditions: saturating (200 µM) substrate, pH 7.5, 25°C
T1 construct: GST (N, cleaved yes); made in house; host or cells: E. coli Rosetta 2 (DE3)

[2] = target: T2, WT GcoA (Amycolatopsis sp., UniProt P0DPQ7); test: End-point coupling assay (formaldehyde produced per NADH consumed); format: biochemical, Amycolatopsis sp. ATCC 39116; conditions: molar ratio formaldehyde produced per NADH consumed, 200 µM NADH, 200 µM aromatic substrate
T2 construct: GST (N, cleaved yes); made in house; host or cells: E. coli Rosetta 2 (DE3)
T2 sequence (P0DPQ7 1-407): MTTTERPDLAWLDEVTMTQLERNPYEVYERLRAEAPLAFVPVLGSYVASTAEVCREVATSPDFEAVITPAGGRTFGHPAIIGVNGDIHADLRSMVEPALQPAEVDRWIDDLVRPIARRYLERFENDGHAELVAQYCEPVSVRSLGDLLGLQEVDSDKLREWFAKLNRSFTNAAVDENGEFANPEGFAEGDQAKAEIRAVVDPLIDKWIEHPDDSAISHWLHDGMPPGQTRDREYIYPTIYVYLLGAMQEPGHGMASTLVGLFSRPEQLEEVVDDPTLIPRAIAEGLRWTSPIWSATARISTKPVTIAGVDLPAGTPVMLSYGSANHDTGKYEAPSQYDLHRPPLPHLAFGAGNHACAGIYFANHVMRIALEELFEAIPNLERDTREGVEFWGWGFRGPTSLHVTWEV

[3] = target: T3, GcoA variant F169V (Amycolatopsis sp., UniProt P0DPQ7, F169V); test: NADH consumption assay (specific activity) with GcoB; format: biochemical, Amycolatopsis sp. ATCC 39116; conditions: saturating (200 µM) substrate, pH 7.5, 25°C
T3 construct: GST (N, cleaved yes); made in house; host or cells: E. coli Rosetta 2 (DE3)

[4] = target: GcoA-F169A (Amycolatopsis sp., UniProt P0DPQ7, F169A); test: Substrate dissociation constant by ferric spin-state (UV/vis) titration; format: binding, Amycolatopsis sp. ATCC 39116; set-up: GST (N, cleaved yes); made in house; host or cells: E. coli Rosetta 2 (DE3)
Experimental: The equilibrium binding constant, KD, for GcoA-F169A and guaiacol, syringol, and 3MC was determined as described previously ([28]) and detailed in SI Appendix. […]
vi = Vmax[S]/(KM + [S]) (4)
Determination of substrate dissociation constants (KD) with F169A. 0-60 µM of guaiacol, syringol, or 3MC in 0.5 or 1 µM aliquots, were titrated into a cuvette containing 3 µM F169A GcoA in 25 mM HEPES, 50 mM NaCl, pH 7.5. The spectrum after each substrate addition was recorded, beginning with no substrate bound. The solution reached equilibrium before the next addition. A difference spectrum was made to illustrate the shift from a low-spin aquo-heme complex to the high-spin substrate-bound complex (spectral […]
shift from 417 nm to 388 nm). […] The absorbance […]
at 388 nm (Abs388-417 nm) was plotted as a function of [substrate], yielding a quadratic curve that was fit to equation (5) to determine […]
Δ Absobs = Δ Absmax2Et(L0 + Et + KD − √(L0 + Et + Kd)2 − 4Et ∗ L0) (5)
Where L0, Et, KD, and ΔAbsmax are the ligand concentrations, total protein (subunit) concentration, the equilibrium dissociation constant, and the maximum Abs388-417 nm, respectively. Reported values are the average of 2 or more measurements.
Formaldehyde determination. A colorimetric assay using tryptophan can be used to quantify the amount of formaldehyde produced in F169 GcoA/B reactions with guaiacol, syringol, or 3MC. 0.2 µM each of F169 GcoA mutants and GcoB were dissolved in air-saturated buffer (25 mM HEPES, 50 mM NaCl) in a cuvette at pH 7.5, 25 °C. 100 µg/mL catalase was added to each reaction to capture any H2O2 formed during the uncoupled reaction. 200 μM NADH was added and the background rate recorded. 100 (guaiacol, syringol, or 3MC) or 200 (syringol) μM of substrate was then added and the reaction monitored until there was no more change, due to either substrate, NADH or O2 depletion, whichever occurred first. […] After cooling, the absorbance was read at 575 nm and the [formaldehyde] calculated by using ε575 nm = 4.2 mM-1 cm-1, obtained with formaldehyde as a standard (1). […]

T3 sequence (P0DPQ7 whole entry F169V): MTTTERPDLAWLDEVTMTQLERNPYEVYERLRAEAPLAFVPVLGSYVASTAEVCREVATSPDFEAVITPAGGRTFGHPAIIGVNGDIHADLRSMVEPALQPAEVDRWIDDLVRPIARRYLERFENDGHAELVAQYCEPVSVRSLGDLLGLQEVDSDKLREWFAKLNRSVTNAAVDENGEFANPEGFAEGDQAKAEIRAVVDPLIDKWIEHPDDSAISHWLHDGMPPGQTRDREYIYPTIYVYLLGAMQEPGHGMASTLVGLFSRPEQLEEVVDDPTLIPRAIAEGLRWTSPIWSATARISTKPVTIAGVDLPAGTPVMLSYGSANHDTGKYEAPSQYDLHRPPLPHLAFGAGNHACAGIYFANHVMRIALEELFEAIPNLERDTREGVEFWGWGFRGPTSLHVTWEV
GcoA-F169A, sequence (P0DPQ7 whole entry F169A): as the sequence (P0DPQ7 whole entry F169V) above, with V169A counted along it
T1 sequence (P0DPQ7 whole entry F169I): as the sequence (P0DPQ7 whole entry F169V) above, with V169I counted along it

| Compound | Specific activity [1] [μmol sec-1 μmol-1 GcoA] | Coupling efficiency [2] [%] | Specific activity [3] [μmol sec-1 μmol-1 GcoA] | Kd ([4]; GcoA-F169A, air-saturated 25 mM Hepes, 50 mM NaCl, pH 7.5, 25 °C, low-spin (417 nm) to high-spin (388 nm) change) [µM] | Kd [4] [µM] |
| --- | --- | --- | --- | --- | --- |
| COc1cccc(O)c1O [3MC, 3-methoxycatechol] | 1.1 ± 0.7 | 78 ± 3 | 5.7 ± 0.3 | 9.5 ± 0.2 | – |
| COc1ccccc1O [guaiacol, 2-methoxyphenol] | 1.4 ± 0.2 | 110 ± 10 | 5.3 ± 0.2 | – | 7.1 ± 0.1 |
| COc1cccc(OC)c1O [syringol, 2,6-dimethoxyphenol] | 0.56 ± 0.2 | 7.1 ± 0.8 | 4.1 ± 0.8 | – | 1.7 ± 0.07 |
